According to patent US6143726A, “Complexes of N'-dimethylaminoacetylpartricin A dimethylaminoethylamide, or the salts thereof, and cholesterol 3-sulphate” (priority 1996, dated 2000):

How the values were obtained:
[1] = Precipitation at the site of injection after intramuscular administration and tolerance; assay type: in vivo
[2] = Acute toxicity test (i.v. administration in mice), LD50 by Probit method; assay type: in vivo; conditions: i.v. into tail vein, male mice, 15 days observation
Description: Groups of 5 […] male mice, of 4 weeks of age and weighing 14-18 g, starved overnight before trial, were treated with serial doses of the SPA-S-753-cholesterol sulphate complex (prepared as described in Example 1) and with the not complexed SPA-S-753 for comparison. The two products, dissolved in 5% glucose solution and diluted to the required concentrations, were injected by i.v. route into a tail vein, at a constant volume of 2 ml/kg and over the time of 30-40 seconds. The animals were then kept under observation for 15 days, while changes in behaviour and mortality were recorded.

[3] = Pharmacokinetics test (i.v.): serum and kidney concentrations, microbiological determination; assay type: in vivo, Sprague-Dawley rats; conditions: 2 hours after single i.v. dose equivalent to 1.25 mg/kg
Description: Two groups of 5 Sprague-Dawley male rats were treated by i.v. route with a single dose equivalent to 1.25 mg/kg of SPA-S-753-cholesterol sulphate complex and of not complexed SPA-S-753 for comparison, with a method similar to that described above. 2 hours following treatments the animals were killed, and the serum and kidneys were collected according to the ordinary procedures. The antibiotic was determined by the microbiological method on the pooled serums and organ homogenates from the 2 groups, the Saccharomyces cerevisiae growth inhibition zones being measured against those produced by antibiotic standard solutions (PYG-agar medium, incubation of 18 h at 30° C.). The antibiotic concentrations found were as follows: 2.6 μg/ml in serum and 4.0 μg/g in the case of SPA-S-753 alone, and 2.4 μg/ml in serum and 0.8 μg/g in the kidneys in the case of SPA-S-753-cholesterol sulphate complex.

[4] = cited from earlier work
[5] = compared with partricin; cited from earlier work

Substance: N'-dimethylaminoacetylpartricin A dimethylaminoethylamide diaspartate [SPA-S-753]
- precipitation on intramuscular administration [1]: partial precipitation
- tolerance ([1]; systemic and local, versus uncomplexed SPA-S-753): negative influence on tolerance of the product
- acute toxicity index, lethal dose in 50% of the animals (LD50) [2]: 46 to 64 mg/kg
- antibiotic concentration in kidneys ([3]; organ homogenates): 4.0 µg/g
- antibiotic concentration in serum ([3]; pooled serum): 2.6 µg/mL
- water-solubility [4]: high water-solubility
- toxicity [5]: definitely much lower than that of partricin
